How the values were obtained:
[1] = system: T1, 6xHis-JsBEAT2; experiment: GC-MS of benzyl acetate formed, curve fit; assay type: biochemical, Jasminum sambac; settings: 250 mM Tris-HCl pH 7.5, 25 mM MgCl2, 25 mM KCl, 10 mM β-mercaptoethanol, 30 °C, 1 h
T1 construct: full-length cDNA, N-terminal 6xHis tag (pQE30), E. coli M15, Ni-NTA purified
From the text: GC-MS of benzyl acetate formed, curve fit on 6xHis-JsBEAT2

[2] = system: T2, GST-JsBEAT1; experiment: GC-MS of benzyl acetate formed, curve fit; assay type: biochemical, Jasminum sambac; settings: 250 mM Tris-HCl pH 7.5, 25 mM MgCl2, 25 mM KCl, 10 mM β-mercaptoethanol, 30 °C, 1 h
T2 construct: tag kept
From the text: GC-MS of benzyl acetate formed, curve fit on GST-JsBEAT1

Structure (SMILES) | Km ([1]; with benzyl alcohol (fixed concentration not restated)) | Km ([2]; 300 μM benzyl alcohol (fixed)) | Km ([1]; with acetyl-CoA (fixed concentration not restated)) | Km ([2]; 300 μM acetyl-CoA (fixed))
CC(=O)SCCNC(=O)CCNC(=O)[C@H](O)C(C)(C)COP(=O)(O)OP(=O)(O)OC[C@H]1O[C@@H](n2cnc3c(N)ncnc32)[C@H](O)[C@@H]1OP(=O)(O)O [acetyl-CoA] | 317 ± 31.7 µM | 546 ± 94.5 µM |  | 
OCc1ccccc1 [benzyl alcohol] |  |  | 279 ± 26.5 µM | 447 ± 108 µM

— paper PMC8747370, “Characterization of Two BAHD Acetyltransferases Highly Expressed in the Flowers of Jasminum sambac (L.) Aiton” (Plants, 2021)
